Experimental data from patent US4743619A, “Method of treating hepatitis” (American Home Products Corporation, priority 1986, dated 1988).

Molecular target: T1, polymerase of hepatitis B virus (Hepatitis B virus genotype D subtype ayw, UniProt P03156)
T1 construct: the Dane particles were isolated from HBV-infected human blood; from tissue; host or cells: Dane particles (HBV virions) isolated from HBV-infected human blood
Assay: in vitro endogenous DNA polymerase assay (Dane particles, radioactive nucleotide incorporation into viral DNA)
Assay type: biochemical
Settings: for inhibition at 0.01 µg/mL: 0.01 μg/ml; for inhibition at 0.01 µg/mL / inhibition at 0.1 µg/mL: 37° C., 2 hours, Dane particle DNA polymerase; for inhibition at 0.1 µg/mL: 0.1 μg/ml; for inhibition of the polymerase of hepatitis B virus (in words): according to the endogenous DNA polymerase procedure
Protocol: Ten microliters of Dane particles were incubated at 37° C. for 2 hours in 100 μl containing 0.5% NP40, 0.07% BME, 66 mM Tris HCl (pH 7.6) 27 mM MgCl2, 0.40 mM NH4 Cl, 0.3 mM dATP, dGTP, and dTTP and 4 picomoles α^32 P-dCTP. The appropriate tubes also contained either 0.1 μg/ml or 0.01 μg/ml of the rifamycin derivatives (a), (b), (c), (d), or (e). The quantity of incorporation of radioactive nucleotides into viral DNA was determined by trichloroacetic acid precipitation as described by Landers et al., J. Virol. 23: 368-376, 1977. The control DNA polymerase reaction contained more than 20,000 cpm.

T1 sequence (P03156 whole entry): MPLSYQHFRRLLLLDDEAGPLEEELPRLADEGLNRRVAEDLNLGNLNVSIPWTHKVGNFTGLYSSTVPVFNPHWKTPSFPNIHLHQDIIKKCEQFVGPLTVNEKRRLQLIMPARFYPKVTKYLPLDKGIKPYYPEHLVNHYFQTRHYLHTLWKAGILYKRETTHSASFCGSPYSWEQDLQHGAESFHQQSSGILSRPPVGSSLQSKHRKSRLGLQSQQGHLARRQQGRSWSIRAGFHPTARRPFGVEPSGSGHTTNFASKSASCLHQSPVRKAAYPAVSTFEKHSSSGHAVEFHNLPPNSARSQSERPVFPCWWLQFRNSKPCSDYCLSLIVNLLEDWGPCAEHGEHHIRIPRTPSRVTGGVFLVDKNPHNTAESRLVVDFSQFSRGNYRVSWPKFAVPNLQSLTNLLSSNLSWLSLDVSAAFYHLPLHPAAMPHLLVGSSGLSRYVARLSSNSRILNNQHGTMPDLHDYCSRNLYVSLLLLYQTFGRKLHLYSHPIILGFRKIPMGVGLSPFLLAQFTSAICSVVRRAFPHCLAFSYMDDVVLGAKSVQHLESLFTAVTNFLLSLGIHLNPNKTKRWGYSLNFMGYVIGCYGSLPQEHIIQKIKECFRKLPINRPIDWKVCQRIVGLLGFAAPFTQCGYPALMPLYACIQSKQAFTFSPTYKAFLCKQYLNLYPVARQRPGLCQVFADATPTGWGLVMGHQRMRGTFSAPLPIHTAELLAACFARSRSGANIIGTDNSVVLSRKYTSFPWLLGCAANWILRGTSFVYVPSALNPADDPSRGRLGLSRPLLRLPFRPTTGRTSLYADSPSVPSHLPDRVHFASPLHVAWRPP

| inhibition at 0.01 µg/mL | inhibition at 0.1 µg/mL | Compound | inhibition of the polymerase of hepatitis B virus (in words) |
| --- | --- | --- | --- |
| 10% | 89% | CO[C@H]1/C=C/O[C@@]2(C)Oc3c(C)c(O)c4c(O)c(c(N)c(NS(=O)(=O)c5ccc(N)cc5)c4c3C2=O)NC(=O)/C(C)=C\C=C\[C@H](C)[C@H](O)[C@@H](C)[C@@H](O)[C@@H](C)[C@H](OC(C)=O)[C@@H]1C [(b), 3-amino-4-deoxo-4-[(4-aminophenyl)sulfonyl]amino-rifamycin SV] | inhibit the polymerase of hepatitis B virus |
| 23.8% | 84.6% | COC1C=COC2(C)Oc3c(C)c(O)c4c(O)c(c5c(c4c3C2=O)N(S(C)(=O)=O)C(C)N5)NC(=O)C(C)=CC=CC(C)C(O)C(C)C(O)C(C)C(OC(C)=O)C1C (centres unmarked) [(f), 4-deoxo-N,3-ethylidenimino-4-(methylsulfonyl)amino rifamycin SV] | inhibit the polymerase of hepatitis B virus |

Continued, compound first:

| Compound | inhibition at 0.01 µg/mL | inhibition at 0.1 µg/mL | inhibition of the polymerase of hepatitis B virus (in words) |
| --- | --- | --- | --- |
| CO[C@H]1/C=C/O[C@@]2(C)Oc3c(C)c(O)c4c(c3C2=O)C(=N)C(N)=C(NC(=O)/C(C)=C\C=C\[C@H](C)[C@H](O)[C@@H](C)[C@@H](O)[C@@H](C)[C@H](OC(C)=O)[C@@H]1C)C4=O [(a), 3-amino-4-deoxo-4-imino-rifamycin S] | 17.2% | 54.1% |  |
| CCCCS(=O)(=O)Oc1c(C=NN2CCCCC2)c2c(O)c3c(O)c(C)c4c(c13)C(=O)[C@@](C)(O/C=C/[C@H](OC)[C@@H](C)[C@@H](OC(C)=O)[C@H](C)[C@H](O)[C@H](C)[C@@H](O)[C@@H](C)/C=C/C=C(/C)C(=O)N2)O4 [(c), 4-O-(n-butylsulfonyl)-3-[(1-piperidinylimino)methyl]-rifamycin SV] | 8.3% | 55.7% | inhibit the polymerase of hepatitis B virus |
| CCCCS(=O)(=O)Oc1c(C=NN2CCOCC2)c2c(O)c3c(O)c(C)c4c(c13)C(=O)[C@@](C)(O/C=C/[C@H](OC)[C@@H](C)[C@@H](OC(C)=O)[C@H](C)[C@H](O)[C@H](C)[C@@H](O)[C@@H](C)/C=C/C=C(/C)C(=O)N2)O4 [(d), 4-O-(n-butylsulfonyl)-3-[(4-morpholinylimino)methyl]-rifamycin SV] | 10.2% | 92.5% | inhibit the polymerase of hepatitis B virus |
| CO[C@H]1/C=C/O[C@@]2(C)Oc3c(C)c(O)c4c(O)c(c(C=NN(C)C)c(OS(=O)(=O)CCCc5ccccc5)c4c3C2=O)NC(=O)/C(C)=C\C=C\[C@H](C)[C@H](O)[C@@H](C)[C@@H](O)[C@@H](C)[C@H](OC(C)=O)[C@@H]1C [(e), 3-[(dimethylhydrazono)methyl]-4-O-[(3-phenylpropyl)sulfonyl]-rifamycin SV] | 25.1% | 85.6% | inhibit the polymerase of hepatitis B virus |
